Data on 1 molecule can be found in patent publication US6730495B2, “Methods for the identification of antimicrobial compounds” (Mycologics, Inc., priority 2001, dated 2004).

By IC50 is commonly meant the concentration that gives 50% inhibition.

Test [1] deals with ketol-isomerase (Aspergillus fumigatus, UniProt E9R5E2). Put plainly: nitro BT ketol-isomerase inhibition assay with crude A. fumigatus cell extract. Particulars: UDP-GlcNAc 0 to 10 mM. It is filed as biochemical. The method, then:
Briefly, in this experiment, a series of ketol-isomerase reactions were analyzed in parallel, wherein each reaction mixture contained Fru-6-P, glutamine, and crude A. fumigatus cell extract (as described in Example 3). In addition, reactions also contained various concentrations of UDP-GlcNAc, ranging from 0 to 10 mM. Reactions were incubated at 37° C. for 60 minutes, after which time the ketol-isomerase reactions were terminated by heating at 70° C. for 15 min. However, the ketol-isomerase reaction can also be terminated by boiling for 5 minutes. In addition, the ketol-isomerase reaction can be clarified following the inactivation step by centrifugation or filtration.
Following arrest of the ketol-isomerase reaction, the necessary reagents for the nitro BT reaction were added to each reaction mixture, including glutamate dehydrogenase enzyme and molar excesses of β-NAD, PMS, and nitro BT. After incubation at 37° C. for 90 minutes, the color development was quantitated by measurement of OD585 nm. […]
In this experiment, 50 μL aliquots of a ketol-isomerase reaction mixture containing 10 mM Fru-6-P, 10 mM Gln, 0.3 mg/mL crude A. fumigatus extract, and various concentrations of UDP-GlcNAc were incubated at 37° C. for 60 minutes. […] After incubation at 37° C. for 90 minutes, the color development was quantitated by OD585 nm.

For test [2], the target named is T1, ketol-isomerase (Candida albicans, UniProt P53704).
T1 construct: ketol-isomerase activity in crude cell extract of Candida albicans ATCC10261 yeast-like cells; host or cells: Candida albicans ATCC 10261 crude cell extract
To be noted: C. albicans strain ATCC No. 10261 crude cell extracts; Milewski et al., J. Biol. Chem., 274:4000-4008 [1999]; read-out: IC50, inhibition of ketol-isomerase activity; cited from earlier work.

ketol-isomerase (Aspergillus fumigatus, UniProt E9R5E2), sequence (E9R5E2 entry or part of it): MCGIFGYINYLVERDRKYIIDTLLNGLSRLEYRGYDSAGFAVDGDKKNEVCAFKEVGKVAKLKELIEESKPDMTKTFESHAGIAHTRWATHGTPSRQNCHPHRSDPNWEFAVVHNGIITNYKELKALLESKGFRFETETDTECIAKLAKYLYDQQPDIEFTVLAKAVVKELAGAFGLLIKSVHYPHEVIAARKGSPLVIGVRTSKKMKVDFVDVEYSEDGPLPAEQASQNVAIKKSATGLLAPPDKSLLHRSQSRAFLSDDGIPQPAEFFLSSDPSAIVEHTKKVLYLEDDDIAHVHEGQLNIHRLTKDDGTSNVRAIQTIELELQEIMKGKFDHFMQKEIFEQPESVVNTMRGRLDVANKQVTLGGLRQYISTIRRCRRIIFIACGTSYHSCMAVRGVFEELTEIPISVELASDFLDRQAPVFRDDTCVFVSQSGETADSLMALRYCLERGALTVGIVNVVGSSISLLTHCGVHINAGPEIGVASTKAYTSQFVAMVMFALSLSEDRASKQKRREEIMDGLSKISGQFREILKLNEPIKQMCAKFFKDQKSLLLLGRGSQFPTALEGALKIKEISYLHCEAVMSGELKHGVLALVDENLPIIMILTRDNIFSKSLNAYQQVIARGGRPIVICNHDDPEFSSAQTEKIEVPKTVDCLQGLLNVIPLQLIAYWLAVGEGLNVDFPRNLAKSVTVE
T1 sequence (P53704 2-713): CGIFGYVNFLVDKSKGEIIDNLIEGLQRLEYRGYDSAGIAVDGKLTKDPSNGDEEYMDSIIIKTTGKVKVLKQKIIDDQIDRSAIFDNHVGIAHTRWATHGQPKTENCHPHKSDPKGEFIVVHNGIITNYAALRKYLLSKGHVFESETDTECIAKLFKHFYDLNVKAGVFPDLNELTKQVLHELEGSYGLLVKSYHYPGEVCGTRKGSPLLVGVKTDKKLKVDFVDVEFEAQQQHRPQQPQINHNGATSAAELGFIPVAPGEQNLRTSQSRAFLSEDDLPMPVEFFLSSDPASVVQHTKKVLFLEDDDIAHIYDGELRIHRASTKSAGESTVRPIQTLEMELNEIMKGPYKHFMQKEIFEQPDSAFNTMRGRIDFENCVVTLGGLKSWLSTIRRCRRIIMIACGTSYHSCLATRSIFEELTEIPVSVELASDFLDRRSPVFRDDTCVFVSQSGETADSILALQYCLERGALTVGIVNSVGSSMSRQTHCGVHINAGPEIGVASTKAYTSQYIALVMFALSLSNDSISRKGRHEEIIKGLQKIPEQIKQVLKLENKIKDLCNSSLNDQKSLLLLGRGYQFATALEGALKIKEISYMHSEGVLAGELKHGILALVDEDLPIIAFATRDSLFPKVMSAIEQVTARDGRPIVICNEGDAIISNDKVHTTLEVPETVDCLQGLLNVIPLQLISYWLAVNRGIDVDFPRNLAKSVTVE

Take `CC(=O)N[C@H]1[C@@H](OP(=O)(O)OP(=O)(O)OC[C@H]2O[C@@H](n3ccc(=O)[nH]c3=O)[C@H](O)[C@@H]2O)O[C@H](CO)[C@@H](O)[C@@H]1O` [UDP-GlcNAc, UDP-N-acetylglucosamine]: the “inhibition of ketol-isomerase activity in A. fumigatus crude extract (FIG. 5)” value at ketol-isomerase [1] is recorded as “inhibited by UDP-GlcNAc in a dose-dependent manner”. In addition, the half-inhibitory concentration (IC50) on ketol-isomerase [2] was 690 µM.
